Counter-ions that a name gives are not always drawn.

As for `Fc1ccc2c(c1)[nH]cc2[C@H]1CC[C@@H](N2CCN(c3cccc4c3OCCO4)CC2)CC1` (as salt: HCl) [Example 25a, 3-{(1,4-cis)-4-[4-(2,3-Dihydro-benzo[1,4]dioxin-5-yl)-piperazin-1-yl]-cyclohexyl}-6-fluoro-1H-indole], the melting point was in the range of 228 to 230 °C.
`Fc1ccc2c(c1)[nH]cc2[C@H]1CC[C@H](N2CCN(c3cccc4c3OCCO4)CC2)CC1` (as salt: HCl) [Example 25b, 3-{(1,4-trans)-4-[4-(2,3-Dihydro-benzo[1,4]dioxin-5-yl)-piperazin-1-yl]-cyclohexyl}-6-fluoro-1H-indole] came in with a melting point of 309 to 310 °C.
The value for `N#Cc1ccc2[nH]cc([C@H]3CC[C@@H](N4CCN(c5cccc6c5OCCO6)CC4)CC3)c2c1` (as salt: HCl) [Example 26a, 3-{(1,4-cis)-4-[4-(2,3-Dihydro-benzo[1,4]dioxin-5-yl)-piperazin-1-yl]-cyclohexyl}-1H-indole-5-carbonitrile] was 300 °C; that for `N#Cc1ccc2[nH]cc([C@H]3CC[C@H](N4CCN(c5cccc6c5OCCO6)CC4)CC3)c2c1` (as salt: HCl) [Example 26b, 3-{(1,4-trans)-4-[4-(2,3-Dihydro-benzo[1,4]dioxin-5-yl)-piperazin-1-yl]-cyclohexyl}-1H-indole-5-carbonitrile] was 300 °C (dec.).
For `Cn1cc([C@H]2CC[C@@H](N3CCN(c4cccc5cccnc45)CC3)CC2)c2cc(C#N)ccc21` (as salt: HCl) [Example 30, 1-Methyl-3-[(1,4-cis)-4-(4-quinolin-8-yl-piperazin-1-yl)-cyclohexyl]-1H-indole-5-carbonitrile] the value was 288 to 289 °C.
The value for `Cn1cc([C@H]2CC[C@@H](N3CCN(c4cc(F)cc5c4OCC5)CC3)CC2)c2cc(C#N)ccc21` (as salt: HCl) [Example 33c, 3-{(1,4-cis)-4-[4-(5-Fluoro-2,3-dihydro-benzofuran-7-yl)-piperazin-1-yl]-cyclohexyl}-1-methyl-1H-indole-5-carbonitrile] was 282 to 284 °C; that for `COc1ccccc1N1CCN(C2CC=C(c3c[nH]c4ccc(F)cc34)CC2)CC1` (stereo not drawn) (as salt: HCl) [Example 35, 5-Fluoro-3-{4-[4-(2-methoxy-phenyl)-piperazin-1-yl]cyclohex-1-enyl}-1H-indole] was 250 °C.
In turn, `N#Cc1ccc2[nH]cc(C3=CCC(N4CCN(c5cccc6[nH]ccc56)CC4)CC3)c2c1` (stereo not drawn) (as salt: HCl) [Example 36, 3-{4-[4-(1H-Indol-4-yl)-piperazin-1-yl]-cyclohex-1-enyl}-1H-indole-5-carbonitrile] showed a melting point of 199 to 201 °C.
For `COc1cc(N2CCN([C@H]3CC[C@H](c4c[nH]c5ccc(C#N)cc54)CC3)CC2)c2cc[nH]c2c1` (as salt: HCl) [Example 68b, 3-[trans-4-[4-(6-Methoxy-1H-indole-4-yl)-1-piperazinyl]cyclohexyl]1H-indole-5-carbonitrile] the value was > 210 °C; for `COc1ccc2cc(N3CCN(C4CCC(c5c[nH]c6ccc(F)cc56)CC4)CC3)ccc2c1` (stereo not drawn) (as salt: oxalate) [Example 69, 5-Fluoro-3-{4-[4-(6-Methoxy-naphthalen-2-yl)-piperazin-1-yl]-cyclohexyl}-1H-indole], 200 to 203 °C; for `Cn1cc([C@H]2CC[C@@H](N3CCN(c4cc(C=O)cc5cccnc45)CC3)CC2)c2cc(C#N)ccc21` (as salt: oxalate) [Example 71, 8-[4-[(cis)-4-(5-Cyano-1-methyl-1H-indole-3-yl)-cyclohexyl]-piperazin-1-yl]-6-quinolinecarbaldehyde], 172 to 174 °C.
`Cn1cc([C@H]2CC[C@@H](N3CCN(c4cc(C(=O)O)cc5cccnc45)CC3)CC2)c2cc(C#N)ccc21` (as salt: oxalate) [Example 73, 8-[4-[(cis)-4-(5-Cyano-1-methyl-1H-indole-3-yl)cyclohexyl]-1-piperazinyl]-6-quinolinecarboxylic Acid] showed a melting point of 230 °C.
Turning to `COC(=O)c1cc(N2CCN([C@H]3CC[C@@H](c4cn(C)c5ccc(C#N)cc54)CC3)CC2)c2ncccc2c1` (as salt: oxalate) [Example 75, Methyl 8-[4-[(cis)-4-(5-cyano-1-methyl-1H-indol-3-yl)cyclohexyl]-1-piperazinyl]-6-quinolinecarboxylate], the melting point was 153 to 155 °C.
For `CN(C)C(=O)c1cc(N2CCN([C@H]3CC[C@@H](c4cn(C)c5ccc(C#N)cc54)CC3)CC2)c2ncccc2c1` (as salt: oxalate) [Example 77a, 8-[4-[(cis)-4-(5-Cyano-1-methyl-1H-indol-3-yl)cyclohexyl]-1-piperazinyl]-N,N-dimethyl-6-quinolincarboxamide] the value was 163 to 165 °C; for `COc1cc(N2CCN([C@H]3CC[C@@H](c4c[nH]c5ncccc54)CC3)CC2)c2ncccc2c1` (as salt: oxalate) [Example 78, 6-Methoxy-8-{cis-4-[4-(1H-pyrrolo[2,3-b]pyridin-3-yl)cyclohexyl]-1-piperazinyl}quinoline], 216 to 220 °C.
`COc1cc2cccnc2c(N2CCN([C@H]3CC[C@@H](c4cn(C)c5ccc(C#N)cc54)CC3)CC2)n1` (as salt: salt) [Example 66a, (cis)-3-{4-[4-(6-Methoxy[1,7]naphthyridin-8-yl)piperazin-1-yl]cyclohexyl}-1-methyl-1H-indole-5-carbonitrile] returned a melting point of 235 to 238 °C.
In the case of `COc1cc2cccnc2c(N2CCN([C@H]3CC[C@@H](c4cn(C)c5ccc(C#N)cc54)CC3)CC2)n1` (as salt: salt) [Example 66b, (cis)-3-{4-[4-(6-Methoxy[1,7]naphthyridin-8-yl)piperazin-1-yl]cyclohexyl}-1-methyl-1H-indole-5-carbonitrile], the melting point is 230 to 233 °C.
For `COc1cc(N2CCN([C@H]3CC[C@@H](c4cn(C)c5ccc(C#N)cc54)CC3)CC2)c2nc(C)ccc2c1` [Example 51a, (cis)-3-{4-[4-(6-Methoxy-2-methylquinolin-8-yl)piperazin-1-yl]cyclohexyl}-1-methyl-1H-indole-5-carbonitrile] the value was 201 to 203 °C; for `COc1cc(N2CCN([C@H]3CC[C@@H](c4cn(C)c5ccc(C#N)cc54)CC3)CC2)c2ncc(C)cc2c1` [Example 51b, (cis)-3-{4-[4-(6-Methoxy-3-methylquinolin-8-yl)piperazin-1-yl]cyclohexyl}-1-methyl-1H-indole-5-carbonitrile], 190 to 191.5 °C.
The value for `COc1cc(N2CCN([C@H]3CC[C@@H](c4cn(C)c5ccc(C#N)cc54)CC3)CC2)c2nccc(C)c2c1` [Example 51c, (cis)-3-{4-[4-(6-Methoxy-4-methylquinolin-8-yl)piperazin-1-yl]cyclohexyl}-1-methyl-1H-indole-5-carbonitrile] was 210 to 212 °C; that for `COc1cc(N2CCN([C@H]3CC[C@H](c4cn(C)c5ccc(C#N)cc54)CC3)CC2)c2nccc(C)c2c1` [Example 51d, (trans)-3-{4-[4-(6-Methoxy-4-methylquinolin-8-yl)piperazin-1-yl]cyclohexyl}-1-methyl-1H-indole-5-carbonitrile] was 230 to 232 °C; that for `COc1cc(N2CCN([C@H]3CC[C@@H](c4cn(C)c5ccc(C#N)cc54)CC3)CC2)c2ncccc2c1C` [Example 52a, (cis)-3-{4-[4-(6-Methoxy-5-methylquinolin-8-yl)piperazin-1-yl]cyclohexyl}-1-methyl-1H-indole-5-carbonitrile] was 227 to 228 °C.
As for `COc1cc(N2CCN([C@H]3CC[C@H](c4cn(C)c5ccc(C#N)cc54)CC3)CC2)c2ncccc2c1C` [Example 52b, (trans)-3-{4-[4-(6-Methoxy-5-methylquinolin-8-yl)piperazin-1-yl]cyclohexyl}-1-methyl-1H-indole-5-carbonitrile], the melting point was 212 to 213 °C.
The compound `COc1cc(N2CCN([C@H]3CC[C@@H](c4cn(C)c5ccc(C#N)cc54)CC3)CC2)c2ncccc2c1Cl` [Example 52e, (cis)-3-{4-[4-(5-Chloro-6-methoxyquinolin-8-yl)piperazin-1-yl]cyclohexyl}-1-methyl-1H-indole-5-carbonitrile] showed a melting point of 231 °C.
In turn, `COc1cc(N2CCN([C@H]3CC[C@H](c4cn(C)c5ccc(C#N)cc54)CC3)CC2)c2ncccc2c1Cl` [Example 52f, (trans)-3-{4-[4-(5-Chloro-6-methoxyquinolin-8-yl)piperazin-1-yl]cyclohexyl}-1-methyl-1H-indole-5-carbonitrile] came in with a melting point of 215 to 216 °C.
For `Cn1cc([C@H]2CC[C@@H](N3CCN(c4cc(Br)cc5cccnc45)CC3)CC2)c2cc(F)ccc21` [Example 58a, (cis)-6-Bromo-8-{4-[4-(5-fluoro-1-methyl-1H-indol-3-yl)cyclohexyl]piperazin-1-yl}quinoline] the value was 215 to 217 °C; for `COc1cc(N2CCN([C@H]3CC[C@H](c4cn(C)c5ccc(C#N)cc54)CC3)CC2)c2nccnc2c1` [Example 65b, (trans)-3-{4-[4-(7-Methoxyquinoxalin-5-yl)piperazin-1-yl]cyclohexyl}-1-methyl-1H-indole-5-carbonitrile], 230 to 233 °C.
For `Cn1cc([C@H]2CC[C@H](N3CCN(c4cc(C=O)cc5cccnc45)CC3)CC2)c2cc(C#N)ccc21` [Example 72, 8-[4-[(trans)-4-(5-Cyano-1-methyl-1H-indole-3-yl)-cyclohexyl]-piperazin-1-yl]-6-quinolinecarbaldehyde] the value was 201 to 203 °C; for `Cn1cc([C@H]2CC[C@H](N3CCN(c4cc(C(=O)O)cc5cccnc45)CC3)CC2)c2cc(C#N)ccc21` [Example 74, 8-[4-[(trans)-4-(5-Cyano-1-methyl-1H-indole-3-yl)cyclohexyl]-1-piperazinyl]-6-quinolinecarboxylic Acid], 275 °C.
The value for `CN(C)C(=O)c1cc(N2CCN([C@H]3CC[C@H](c4cn(C)c5ccc(C#N)cc54)CC3)CC2)c2ncccc2c1` [Example 77b, 8-[4-[(trans)-4-(5-Cyano-1-methyl-1H-indol-3-yl)cyclohexyl]-1-piperazinyl]-N,N-dimethyl-6-quinolincarboxamide] was 160 to 163 °C.

For orientation: melting point means the temperature, or range, at which the solid turns liquid.

The values are drawn from patent US6465482B2, “Arylpiperazinyl-cyclohexyl indole derivatives for the treatment of depression” (Wyeth, priority 1999, dated 2002).
